System: carrageenan-induced mouse paw edema
Test: Carrageenan-induced paw edema
Assay type: in vivo, mouse (female C57BL/6J)
Conditions: carrageenan-induced mouse paw inflammation; IIn treated

CN(Cc1ccccn1)Cc1cccc(CN(C)Cc2ccccn2)n1 [IIn, N,N′-(Pyridine-2,6-diylbis(methylene))bis(N-methyl-1-(pyridin-2-yl)methanamine)]
Histological analysis of paw tissue (H&E): significantly attenuated the mouse paw inflammation and damage
